Measurements published in patent EP1042293B9, “SUBSTITUTED PYRIDINE AND PYRIDAZINE COMPOUNDS AND THEIR PHARMACEUTICAL USE” (AMGEN INC., priority 1997, dated 1999).

Tested on: TNF production by monocytes activated with bacterial lipopolysaccharide (LPS)
Experiment: Lipopolysaccharide-activated monocyte TNF production assay
Assay type: cell-based
Conditions: Homo sapiens, 4 h, adherent PBMC-derived monocytes, LPS from E. coli, TNF in supernatant by ELISA, read-out: IC50 values in the monocyte assay (LPS induced TNF release)
Experimental: Test compounds were evaluated in vitro for the ability to inhibit the production of TNF by monocytes activated with bacterial lipopolysaccharide (LPS). Fresh residual source leukocytes (a byproduct of plateletpheresis) were obtained from a local blood bank, and peripheral blood mononuclear cells (PBMCs) were isolated by density gradient centrifugation on Ficol-Paque Plus (Pharmacia). PBMCs were suspended at […] /ml in DMEM supplemented to contain 2% FCS, 10 mM, 0.3 mg/ml glutamate, 100 U/ml penicillin G and […] streptomycin sulfate (complete media). Cells were plated into Falcon flat bottom, 96 well culture plates (200 µl/well) and cultured overnight at 37°C and 6% CO2. Non-adherent cells were removed by washing with 200 µl/well of fresh medium. Wells containing adherent cells (~70% monocytes) were replenished with 100 µl of fresh medium.
Test compounds were dissolved in […]. Compound stock solutions were prepared to an initial concentration of […]. Stocks were diluted initially to 20 - 200 µM in complete media. Nine twofold serial dilutions of each compound were then prepared in complete medium.
One hundred microliters of each test compound dilution were added to microtiter wells containing adherent monocytes and 100 µl complete medium. Monocytes were cultured with test compounds for 60 min at which time 25 µl of complete medium containing 30 ng/ml lipopolysaccharide from E. coli K532 were added to each well. Cells were cultured an additional 4 hrs. Culture supernatants were then removed and TNF presence in the supernatants was quantified using an ELISA.
Flat bottom, 96 well Corning High Binding ELISA plates were coated overnight (4°C) with 150 µL/well of 3 µg/ml murine anti-human TNF-α MAb (R&D Systems #MAB210). […]
Standard curve data were fit to a second order polynomial and unknown TNF-α concentrations determined from their OD by solving this equation for concentration. […]

Compound	IC50 [µM]
Cc1cccc(-c2cc(OC[C@@H](N)Cc3ccccc3)ncc2-c2ccncc2)c1 [Example 14, 2-((S)-2-amino-3-phenylpropoxy)-4-(3-methylphenyl)-5-(4-pyridyl)pyridine]	≤ 20
Cc1cccc(-c2cc(OCCCc3ccccc3)ncc2-c2ccncc2)c1 [Example 18, 2-(3-phenylpropoxy)-4-(3-methylphenyl)-5-(4-pyridyl)pyridine]	≤ 20
Cc1cccc(-c2cc(=O)n(CCCc3ccccc3)cc2-c2ccncc2)c1 [Example 19, 1-(3-phenylpropyl)-4-(3-methylphenyl)-5-(4-pyridyl)-1H-pyrid-2-one]	≤ 20
